Measured values: patent publication US12509446B2, “FYN and VEGFR2 kinase inhibitors” (ROTTAPHARM BIOTECH S.R.L., priority 2019, dated 2025)
Like-named read-outs stand apart in the source and are kept apart here.

Legend:
IL-6 = test: Gene expression in rat articular chondrocytes under IL-1β stimulation, IL-6; format: cell-based; conditions: for IL-6 gene expression, percentage of inhibitory effect at the highest non toxic concentration: 6 h; for IC50: Rattus norvegicus, Chondrocyte, 6 h incubation
[1] = test system: bovine nasal septum cartilage; test: Inhibition of cartilage degradation (GAG release) induced by IL-1α in a bovine in vitro model; format: cell-based; parameters: key to Bovine cartilage degradation induced by IL-1α, no effect: ne: no effect
Summary of the method: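 Cartilage punches (2 mm) from an 8-month-old male bovine nasal septum were cultured 48 h, then stimulated 48 h with IL-1α […] ± compound in DMEM + 0.1% BSA. Compound doses were set from 48 h rat chondrocyte toxicity. GAG in medium and papain-digested tissue was measured by DMB absorbance at 590 nm; degradation = medium GAG/total GAG × 100.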

[2] = test system: rat primary articular chondrocytes
Description: (§2) Purified chondrocytes were resuspended in DMEM glutaMAX 10% and plated in a 96X well plate for toxicity analysis and in a 6X well plate for gene expression analysis.
(§3) For toxicity analysis cells were then treated with the different compounds for 24 and 48 h. At the end of the incubation time, the medium was removed and was substituted with a mixture 10:1 of DMEM glutaMAX 10%—MTT (2 mg/ml) for 1 h at 37° C. in the cell incubator. After this incubation, the precipitated salt was dissolved with 100 μl of DMSO and the plate was read at 540 nm. The toxicity analysis were performed to decide the maximal non toxic concentration of each compound used in the gene expression assay.

IL-1β = test: Gene expression in rat articular chondrocytes under IL-1β stimulation, IL-1β; format: cell-based; conditions: for IL-1β gene expression, percentage of inhibitory effect at the highest non toxic concentration: 6 h; for IC50: Rattus norvegicus, Chondrocyte, 6 h incubation
Summary of the method: (§1)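 Rat chondrocytes, day 10 post-plating; switched to DMEM GlutaMAX I 0.4%; compound + cytokine 2 ng/ml; 6 h (IL-1β, ADAMTS-5) or 24 h (MMP3, MMP13); total RNA → cDNA → TaqMan qPCR, 18S-normalised.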

NF-kB = test: Gene reporter (GR) assay, NF-kB activation after TNFα in JB6 Cl 41-5a (P+) cells; format: cell-based, murine; conditions: TNFα 2 ng/ml, non toxic concentrations, read-out: Gene reporter (GR) inhibition IC50
Summary of the method: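 TNFα (2 ng/ml, 4 h) stimulation followed 1 h compound pre-treatment in NF-kB-luciferase-transfected mouse JB6 (P+) epithelial cells. Reporter luminescence and cell viability were read together, each condition in quadruplicate.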

COX2 = test: Gene expression in rat articular chondrocytes under IL-1β stimulation, COX2; format: cell-based; parameters: key to COX2 gene expression, no effect: ne: no effect
MMP3 = test: Gene expression in rat articular chondrocytes under IL-1β stimulation, MMP3; format: cell-based; parameters: key to MMP3 gene expression, no effect: ne: no effect; conditions: for MMP3 gene expression, percentage of inhibitory effect at the highest non toxic concentration / MMP3 gene expression, no effect: 24 h; for IC50: Rattus norvegicus, Chondrocyte, 24 h incubation
Summary of the method: as §1

ADAMTS-5 = test: Gene expression in rat articular chondrocytes under IL-1β stimulation, ADAMTS-5; format: cell-based; conditions: for ADAMTS-5 gene expression, percentage of inhibitory effect at the highest non toxic concentration: 6 h; for IC50: Rattus norvegicus, Chondrocyte, 6 h incubation
Summary of the method: as §1

MMP13 = test: Gene expression in rat articular chondrocytes under IL-1β stimulation, MMP13; format: cell-based; parameters: key to MMP13 gene expression, no effect: ne: no effect
Summary of the method: as §1

VEGFR2 = VEGFR2 (Homo sapiens (Human), UniProt P35968); test: In vitro VEGFR2 kinase activity assay (Eurofins Cerep); format: biochemical; conditions: read-out: VEGFR2 KINASE INHIBITION IC50
Summary of the method: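 Contract biochemical kinase assay on human VEGFR2 with inhibitors at 10^−8 to 10^−5 M final (some re-tested from 10^−9 M). Activity expressed as percent of no-compound control; IC50 by non-linear regression of mean replicate inhibition curves.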

Fyn = Fyn (Homo sapiens (Human), UniProt P06241); test: Z′-LYTE in vitro Fyn kinase activity assay; format: biochemical; conditions: ATP 50 μM; read-out: FYN KINASE INHIBITION IC50
Summary of the method: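 Z′-LYTE FRET format with full-length active Fyn in 50 mM Hepes pH 7.5, 10 mM MgCl2, 1 mM EGTA, 0.01% Brij-35, 1% DMSO final; 60 minutes at 25° C. Percent phosphorylation from 0% and 100% phosphorylation controls; IC50 by non-linear curve fitting of percent inhibition.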

[3] = test system: rat primary articular chondrocytes; test: Toxicity analysis (MTT) in rat primary chondrocytes; conditions: for First toxic concentration at 24 h: rat primary chondrocytes
Description: as §2, §3

[4] = Rattus norvegicus, Chondrocyte, 24 h incubation

Chain of Fyn (P06241 whole entry): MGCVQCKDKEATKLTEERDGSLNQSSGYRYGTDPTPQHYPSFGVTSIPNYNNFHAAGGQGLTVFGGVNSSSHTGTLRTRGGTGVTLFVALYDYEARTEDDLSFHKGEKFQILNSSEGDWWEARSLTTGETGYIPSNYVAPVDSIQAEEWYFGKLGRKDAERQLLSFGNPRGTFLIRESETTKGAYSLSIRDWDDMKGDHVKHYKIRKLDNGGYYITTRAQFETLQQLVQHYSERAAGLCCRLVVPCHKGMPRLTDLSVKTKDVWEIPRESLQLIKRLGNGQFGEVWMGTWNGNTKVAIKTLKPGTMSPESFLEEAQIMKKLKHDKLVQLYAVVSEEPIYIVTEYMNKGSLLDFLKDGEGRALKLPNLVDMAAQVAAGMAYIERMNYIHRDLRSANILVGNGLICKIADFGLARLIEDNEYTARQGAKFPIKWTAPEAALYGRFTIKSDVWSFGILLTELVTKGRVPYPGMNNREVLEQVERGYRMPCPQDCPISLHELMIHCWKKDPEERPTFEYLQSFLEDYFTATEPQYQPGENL
Chain of VEGFR2 (P35968 20-1356): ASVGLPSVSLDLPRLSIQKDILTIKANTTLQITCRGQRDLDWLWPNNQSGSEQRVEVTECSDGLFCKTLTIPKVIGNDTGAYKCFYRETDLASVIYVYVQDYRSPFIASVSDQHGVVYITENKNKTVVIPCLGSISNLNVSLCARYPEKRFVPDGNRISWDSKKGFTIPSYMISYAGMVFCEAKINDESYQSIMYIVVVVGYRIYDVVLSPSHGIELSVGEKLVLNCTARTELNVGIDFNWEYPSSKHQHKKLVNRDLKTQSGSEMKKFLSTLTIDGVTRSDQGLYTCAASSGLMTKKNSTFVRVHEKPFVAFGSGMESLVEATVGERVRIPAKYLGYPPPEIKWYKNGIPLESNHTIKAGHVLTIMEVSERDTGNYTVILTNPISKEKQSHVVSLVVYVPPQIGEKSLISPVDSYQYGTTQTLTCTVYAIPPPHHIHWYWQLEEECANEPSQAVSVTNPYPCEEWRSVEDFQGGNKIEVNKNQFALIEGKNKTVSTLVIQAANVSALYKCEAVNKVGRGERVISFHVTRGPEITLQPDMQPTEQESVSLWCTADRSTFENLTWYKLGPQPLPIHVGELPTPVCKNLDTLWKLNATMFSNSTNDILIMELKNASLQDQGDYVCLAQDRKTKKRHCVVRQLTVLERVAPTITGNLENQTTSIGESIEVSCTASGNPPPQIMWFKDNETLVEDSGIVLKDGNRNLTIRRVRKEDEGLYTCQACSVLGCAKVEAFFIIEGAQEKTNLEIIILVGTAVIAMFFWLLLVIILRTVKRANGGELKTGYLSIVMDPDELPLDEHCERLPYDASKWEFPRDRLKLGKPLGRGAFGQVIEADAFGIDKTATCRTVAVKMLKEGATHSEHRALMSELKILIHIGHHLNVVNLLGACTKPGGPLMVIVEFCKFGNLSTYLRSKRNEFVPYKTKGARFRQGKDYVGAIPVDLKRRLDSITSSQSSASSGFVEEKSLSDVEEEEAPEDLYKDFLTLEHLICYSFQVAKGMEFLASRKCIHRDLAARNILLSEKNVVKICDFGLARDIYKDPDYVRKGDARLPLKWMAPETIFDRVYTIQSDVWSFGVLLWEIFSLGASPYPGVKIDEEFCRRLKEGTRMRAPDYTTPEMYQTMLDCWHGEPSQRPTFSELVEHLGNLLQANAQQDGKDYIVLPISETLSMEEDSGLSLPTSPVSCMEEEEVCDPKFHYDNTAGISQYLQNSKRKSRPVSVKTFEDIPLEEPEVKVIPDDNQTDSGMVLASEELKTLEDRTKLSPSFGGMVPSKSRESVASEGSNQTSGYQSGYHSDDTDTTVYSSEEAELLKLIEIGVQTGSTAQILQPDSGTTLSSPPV

Structure (SMILES) | IC50 (VEGFR2) [nM] | IC50 (Fyn) [nM] | Bovine cartilage degradation induced by IL-1α, no effect [1] | IC50 (NF-kB; Mus musculus, JB6 Cl 41-5a) [nM] | COX2 gene expression, percentage of inhibitory effect at the highest non toxic concentration (COX2; 10 μM, 24 h) | First toxic concentration at 48 h in rat primary chondrocytes [3] [µM] | First toxic concentration at 24 h [3] [µM] | MMP13 gene expression, percentage of inhibitory effect at the highest non toxic concentration (MMP13; 10 μM, 24 h) | IL-6 gene expression, percentage of inhibitory effect at the highest non toxic concentration (IL-6; 10 μM) | IL-1β gene expression, percentage of inhibitory effect at the highest non toxic concentration (IL-1β; 10 μM) | IC50 (ADAMTS-5) [nM] | also measured
CC(=O)N1Cc2cnc(Nc3cc(CCc4cc(NC(=O)c5cccc(C(F)(F)F)c5)ccc4C)n[nH]3)cc2C1 [Compound 34, N-(3-(2-(5-((2-acetyl-2,3-dihydro-1H-pyrrolo[3,4-c]pyridin-6-yl)amino)-1H-pyrazol-3-yl)ethyl)-4-methylphenyl)-3-(trifluoromethyl) benzamide] | < 10 | 6 | – | – | – | – | – | – | – | – | – | IL-6 gene expression, percentage of inhibitory effect at the highest non toxic concentration (IL-6; 3 μM): 3 μM 100%; Bovine cartilage degradation induced by IL-1α, % inhibitory effect at max concentration ([1]; 1 μM): 96%; Inhibitory effect on the GAG release ([1]; at max concentration): 95-100%; First toxic concentration at 24 h [2]: 10 µM; First toxic concentration at 48 h in rat primary chondrocytes [2]: 3 µM; IL-1β gene expression, percentage of inhibitory effect at the highest non toxic concentration (IL-1β; 3 μM): 3 μM 99%; IC50 (NF-kB): 958 nM; COX2 gene expression, percentage of inhibitory effect at the highest non toxic concentration (COX2; 3 μM, 24 h): 3 μM 76%; MMP3 gene expression, percentage of inhibitory effect at the highest non toxic concentration (MMP3; 3 μM): 3 μM 58%; ADAMTS-5 gene expression, percentage of inhibitory effect at the highest non toxic concentration (ADAMTS-5; 3 μM): 3 μM 97%; MMP13 gene expression, percentage of inhibitory effect at the highest non toxic concentration (MMP13; 3 μM, 24 h): 3 μM 82%
CS(=O)(=O)c1cccc(C(=O)Nc2ccc(F)c(CCc3cc(Nc4cnccn4)[nH]n3)c2)c1 [Compound 12, N-(4-fluoro-3-(2-(5-(pyrazin-2-ylamino)-1H-pyrazol-3-yl)ethyl)phenyl)-3-(methylsulfonyl)benzamide] | < 10 | 24 | ne | 4510 | 10 μM 63% | 10 | >10 | 10 μM 34% | – | – | – | IC50 (IL-6): 2600 nM; IC50 (IL-1β): 3900 nM; MMP3 gene expression, no effect (MMP3): ne; ADAMTS-5 gene expression, percentage of inhibitory effect at the highest non toxic concentration (ADAMTS-5; 10 μM): 10 μM 57%
CC(C)(C#N)c1cc(C(=O)Nc2ccc(F)c(CCc3cc(Nc4cnccn4)[nH]n3)c2)ccn1 [Compound 11, 2-(2-cyanopropan-2-yl)-N-(4-fluoro-3-(2-(5-(pyrazin-2-ylamino)-1H-pyrazol-3-yl)ethyl)phenyl)isonicotinamide] | < 10 | 21 | – | 785 | 10 μM 100% | >10 | >10 | – | 10 μM 100% | 10 μM 100% | – | inhibition at 10 µM ([1]; Bos taurus, 10 μM, read-out: Bovine cartilage degradation induced by IL-1α, % inhibitory effect at max concentration): 89%; IC50 (MMP3): 2200 nM; ADAMTS-5 gene expression, percentage of inhibitory effect at the highest non toxic concentration (ADAMTS-5; 10 μM): 10 μM 100%; IC50 (MMP13; [4]): 2400 nM
Cc1ncc(Nc2cc(CCc3cc(NC(=O)c4cccc(C(F)(F)F)c4)ccc3F)n[nH]2)cn1 [Compound 40, N-(4-fluoro-3-(2-(5-((2-methylpyrimidin-5-yl)amino)-1H-pyrazol-3-yl)ethyl)phenyl)-3-(trifluoromethyl)benzamide] | < 10 | 99 | – | 515 | 10 μM 100% | 10 | >10 | 10 μM 100% | 10 μM 100% | 10 μM 100% | 2300 | inhibition at 3 µM ([1]; Bos taurus, 3 μM, read-out: Bovine cartilage degradation induced by IL-1α, % inhibitory effect at max concentration): 49%; IC50 (MMP3): 500 nM
Cc1nc(C(=O)Nc2ccc(C)c(CCc3cc(Nc4cnccn4)[nH]n3)c2)c(C(F)(F)F)o1 [Compound 6, 2-methyl-N-(4-methyl-3-(2-(5-(pyrazin-2-ylamino)-1H-pyrazol-3-yl)ethyl)phenyl)-5-(trifluoromethyl)oxazole-4-carboxamide] | < 10 | 112 | ne | 2670 | – | 3 | 3 | – | – | – | – | IC50 (IL-6): 640 nM; IL-1β gene expression, percentage of inhibitory effect at the highest non toxic concentration (IL-1β; 1 μM): 1 μM 50%; COX2 gene expression, no effect (COX2; 24 h): ne; MMP3 gene expression, no effect (MMP3): ne; ADAMTS-5 gene expression, percentage of inhibitory effect at the highest non toxic concentration (ADAMTS-5; 1 μM): 1 μM 28%; MMP13 gene expression, no effect (MMP13; 24 h): ne
CCNC1(c2ccc(C(=O)Nc3ccc(C)c(CCc4cc(Nc5cnccn5)[nH]n4)c3)cc2)CC1 [Compound 4, 4-(1-(ethylamino)cyclopropyl)-N-(4-methyl-3-(2-(5-(pyrazin-2-ylamino)-1H-pyrazol-3-yl)ethyl)phenyl)benzamide] | < 10 | 21 | ne | 2230 | – | 3 | >10 | 10 μM 84% | 10 μM 93% | – | 3000 | IC50 (IL-1β): 1700 nM; IC50 (COX2; [4]): 1400 nM; MMP3 gene expression, percentage of inhibitory effect at the highest non toxic concentration (MMP3; 10 μM): 10 μM 55%
Cc1ccc(NC(=O)c2cccc(S(=O)(=O)C(C)C)c2)cc1CCc1cc(Nc2ncccc2C)[nH]n1 [Compound 35, 3-(isopropylsulfonyl)-N-(4-methyl-3-(2-(5-((3-methylpyridin-2-yl)amino)-1H-pyrazol-3-yl)ethyl)phenyl) benzamide] | < 10 | 88 | – | 1310 | 10 μM 90% | >10 | >10 | 10 μM 88% | 10 μM 90% | 10 μM 74% | 3000 | IC50 ([1]; Bos taurus, head says nM, cells print μM, 48 h stimulation, read-out: Inhibitory effect on bovine cartilage degradation induced by IL-1α, IC50): 1500 nM; MMP3 gene expression, percentage of inhibitory effect at the highest non toxic concentration (MMP3; 10 μM): 10 μM 44%
